These results are taken from US20250170112A1, “ADENOSINE LIGANDS FOR THE TREATMENT OF NEUROLOGICAL DISORDERS” (Lucy Therapeutics, Inc., priority 2022, published 2025).

The target of assay [1] is T1, human Adenosine A1 receptor (Homo sapiens, UniProt P30542).
T1 construct: host or cells: CHO-K1
T1 sequence (P30542 1-326): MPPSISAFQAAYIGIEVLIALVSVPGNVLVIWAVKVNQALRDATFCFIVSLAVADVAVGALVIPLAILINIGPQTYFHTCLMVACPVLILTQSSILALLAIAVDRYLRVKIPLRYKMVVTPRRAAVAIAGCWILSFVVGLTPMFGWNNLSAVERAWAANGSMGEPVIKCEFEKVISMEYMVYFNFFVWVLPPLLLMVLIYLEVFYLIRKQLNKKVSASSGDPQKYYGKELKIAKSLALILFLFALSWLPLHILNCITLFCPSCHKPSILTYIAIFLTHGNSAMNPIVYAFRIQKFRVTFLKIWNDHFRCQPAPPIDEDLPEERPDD
The experiment in a line: GTPγS scintillation proximity assay, agonist testing. It is filed as biochemical. The settings on record: agonist activity; membrane extracts of CHO-K1 cells expressing recombinant human A1; read-out: A1AR EC50. Here is the method: (§1) SPA ^35S-GTPγS experiments were conducted with Epics Therapeutics membrane preparations. cAMP HTRF assays were conducted with recombinant cell lines.
• Assay buffer: 20 mM HEPES pH 7.4; 100 mM NaCl, 10 μg/mL saponin, MgCl2 at optimized concentration for the specific receptor. • Membranes: membrane extracts prepared from CHO-K1 cells expressing recombinant human Adenosine A1 receptor, thawed on ice, diluted in assay buffer and kept on ice. • GDP: diluted in assay buffer at the optimized concentration for the specific receptor Beads: PVT-WGA (Perkin Elmer, RPNQ001), diluted in assay buffer at 50 mg/mL (0.5 mg/10 μL) • GTPγ^35S: (Perkin Elmer, NEG030X), diluted in assay buffer for a final 0.1 nM assay concentration
Protocol for agonist testing: membranes are mixed with GDP (volume:volume). In parallel, GTPγ[^35S] is mixed with the beads (volume:volume) just before starting the reaction. The following reagents are successively added in the wells of an Optiplate (Perkin Elmer): 50 μL of test or reference ligand, 25 μL of the membranes:GDP mix, and 25 μL of the GTPγ[^35S]:beads mix. The plates are covered with a top seal, mixed on an orbital shaker for 2 min, and then incubated for 1 hour at room temperature. Then the plates are centrifuged for 10 min at 2000 rpm, incubated at room temperature and counted for 30 sec/well with a PerkinElmer TopCount™ reader. • Conditions for the GTPγS scintillation proximity assay are shown in Table 14.
Background: SPA uses beads or plates that emit light when radiolabelled molecules are held near them.

Another assay deals with T2, human A2B (Homo sapiens, UniProt P29275).
T2 construct: expressed in transfected cells; host or cells: HEK293
T2 sequence (P29275 1-332): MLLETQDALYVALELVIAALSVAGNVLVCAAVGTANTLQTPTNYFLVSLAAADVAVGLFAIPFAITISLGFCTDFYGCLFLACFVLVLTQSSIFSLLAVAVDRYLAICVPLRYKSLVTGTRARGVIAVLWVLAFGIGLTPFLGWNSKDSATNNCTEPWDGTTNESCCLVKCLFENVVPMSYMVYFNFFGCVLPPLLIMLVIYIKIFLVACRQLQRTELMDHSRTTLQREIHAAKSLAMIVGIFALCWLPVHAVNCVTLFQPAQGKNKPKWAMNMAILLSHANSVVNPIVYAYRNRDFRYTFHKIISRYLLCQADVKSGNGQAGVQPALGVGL
Briefly: cAMP HTRF assay for Gs coupled receptor, agonist test. It is filed as cell-based. The settings on record: agonist activity; HEK293 cells expressing recombinant human A2B; read-out: A2BAR EC50. Here is the method:
as §1
Dose response curves are performed in parallel with the reference compounds.
For agonist test (96 well): 12 μL of cells are mixed with 12 μL of the test compound at increasing concentrations and then incubated 30 min at room temperature. After addition of the lysis buffer containing cAMP-d2 and anti-cAMP cryptate detection reagents, plates are incubated 1 hour incubation at room temperature, and fluorescence ratios are measured according to the manufacturer specification, with the HTRF kit.
On the technique in general: TR-FRET usually uses a lanthanide donor and a delayed reading to cut background.

Consider `COCCOc1ccc(-c2c(C#N)c(N)nc(CCc3cccnc3)c2C#N)cc1` [Compound 191], for which the values for the EC50 (in assay [1]; on human A2B) were 567 nM and above 10000 nM, respectively.

In the case of `COc1nc(SCC2COC2)c(C#N)c(-c2ccc(OC3COC3)cc2)c1C#N` [Compound 294, 2-Methoxy-6-((oxetan-3-ylmethyl)thio)-4-(4-(oxetan-3-yloxy)phenyl)pyridine-3,5-dicarbonitrile], the results for the EC50 (in assay [1]; on human A2B) were 25.2 nM and above 10000 nM, respectively.

With `COc1nc(SCC2COC2)c(C#N)c(-c2ccc(OCCO)cc2)c1C#N` [Compound 281], the EC50 – broadly, the concentration giving half of the maximal effect – in assay [1] is 827 nM; on human A2B, above 10000 nM.

`COCCOc1ccc(-c2c(C#N)cnc(SCC3COC3)c2C#N)cc1` [Compound 64]: the EC50 in assay [1] was 281 nM; on human A2B, above 10000 nM.

On to `COCCOc1ccc(-c2c(C#N)cnc(SCc3cccnc3)c2C#N)cc1` [Compound 83, 4-[4-(2-Methoxyethoxy)phenyl]-2-(3-pyridylmethylthio)-pyridine-3,5-dicarbonitrile], for which the figures for the EC50 (in assay [1]; at human A2B) were 282 nM and above 10000 nM, respectively.

On to `CNc1nc(OCC2COC2)c(C#N)c(-c2ccc(OC3COC3)cc2)c1C#N` [Compound 288], for which the 50% effective concentration (EC50) in assay [1] is 308 nM; on human A2B it was above 10000 nM.

For the molecule `Cc1ncccc1CSc1nc(N2CCCC2)c(C#N)c(-c2ccc(OCCO)cc2)c1C#N` [Compound 76], the values for the EC50 (in assay [1]; at human A2B) were above 10000 nM and 4370 nM, respectively.

As to `N#Cc1c(SCc2cccnn2)nc(N2CC(F)C2)c(C#N)c1-c1ccc(OCCOC(F)F)cc1` [Compound 241], the EC50 is 73.2 nM in assay [1] and above 10000 nM at human A2B.

Turning to `CCOCCSc1nc(N)c(C#N)c(-c2ccc(OCCOC)cc2)c1C#N` [Compound 34], the figures for the EC50 (in assay [1]; at human A2B) were 245 nM and above 10000 nM, respectively.

As for `N#Cc1c(N)nc(SCc2cnccn2)c(C#N)c1-c1ccc(OCCO)cc1` [Compound 172], the values for the EC50 (in assay [1]; at human A2B) were 12 nM and 3.9 nM, respectively.

As to `N#Cc1c(N)nc(SC[C@@H]2CCOC2)c(C#N)c1-c1ccc(OC2COC2)cc1` [Compound 228], the EC50 stood at 1460 nM in assay [1] and 7550 nM at human A2B.

As to `N#Cc1c(N)nc(SCC2COC2)c(C#N)c1-c1ccc(OC(F)(F)COC(F)F)cc1` [Compound 289, 2-Amino-4-(4-(2-(difluoromethoxy)-1,1-difluoroethoxy)phenyl)-6-((oxetan-3-ylmethyl)thio)pyridine-3,5-dicarbonitrile], the EC50 (in assay [1]; at human A2B) was above 10000 nM in each case.

Consider `COC1CC(Oc2ccc(-c3c(C#N)c(N)nc(SCC4COC4)c3C#N)cc2)C1` (centres unmarked) [Compound 323], for which the EC50 in assay [1] was 227 nM; on human A2B, above 10000 nM.

In the case of `N#Cc1c(SCc2cccnc2)nc(N2CC(O)C2)c(C#N)c1-c1ccc(OC(F)(F)CO)cc1` [Compound 261], the EC50 (in assay [1]; on human A2B) was above 10000 nM each time.

In the case of `CNc1nc(SCC2COC2)c(C#N)c(-c2ccc(OC3COC3)cc2)c1C#N` [Compound 314], the EC50 is 5.16 nM in assay [1] and above 10000 nM on human A2B.

Regarding `N#Cc1c(N)nc(SCC2COC2)c(C#N)c1-c1ccc(OCCO)cc1` [Compound 319], the EC50 worked out at 1.53 nM in assay [1] and 401 nM at human A2B.

Take `COCCOc1ccc(-c2c(C#N)c(C)nc(N)c2C#N)cc1` [Compound 39, 2-Amino-4-[4-(2-methoxyethoxy)phenyl]-6-methyl-pyridine-3,5-dicarbonitrile]: the EC50 in assay [1] was 862 nM; on human A2B it was above 10000 nM.

Take `CNC(=O)CSc1nc(N)c(C#N)c(-c2ccc(OCCO)cc2)c1C#N` [Compound 139]: the EC50 in assay [1] amounted to 87 nM; on human A2B it was 4.5 nM.

Regarding `N#Cc1c(N)nc(SCc2nccc3[nH]ccc23)c(C#N)c1-c1ccc(OCCO)cc1` [Compound 229], the EC50 was above 10000 nM in assay [1] and 11 nM on human A2B.

With `N#Cc1c(SCc2cccnn2)nc(C2CC2)c(C#N)c1-c1ccc(OCCOC2COC2)cc1` [Compound 242], the EC50 in assay [1] worked out at 905 nM; on human A2B, 749 nM.

For `CCOCCSc1nc(N)c(C#N)c(-c2ccc(OC3COC3)cc2)c1C#N` [Compound 17], the EC50 in assay [1] came out at 99.1 nM; at human A2B, 5950 nM.

On to `N#Cc1c(N)nc(SCc2cccnc2)c(C#N)c1-c1ccc(OCCOC(F)F)cc1` [Compound 40], for which the EC50 in assay [1] is 21.6 nM; on human A2B, above 10000 nM.

`N#Cc1c(N)nc(SCc2cccnc2)c(C#N)c1-c1ccc(O[C@@H]2CCOC2)cc1` [Compound 236]: the values for the concentration giving a half-maximal response (EC50) (in assay [1]; at human A2B) were 164 nM and 49.3 nM, respectively.

Regarding `COCCOc1ccc(-c2c(C#N)c(N)nc(OCc3cccnc3)c2C#N)cc1` [Compound 193], the results for the 50% effective concentration (EC50) (in assay [1]; at human A2B) were 49 nM and above 10000 nM, respectively.

Turning to `N#Cc1c(N)nc(SCc2cccc3[nH]ccc23)c(C#N)c1-c1ccc(OC2COC2)cc1` [Compound 22, 2-Amino-6-(1H-indol-4-ylmethylsulfanyl)-4-[4-(oxetan-3-yloxy)phenyl]pyridine-3,5-dicarbonitrile], the EC50 in assay [1] is 3.5 nM; at human A2B, above 10000 nM.

For the molecule `CC(C)(O)COc1ccc(-c2c(C#N)c(SCc3cccnc3)nc(N3CCCC3)c2C#N)cc1` [Compound 50], the half-maximal effective concentration (EC50) in assay [1] was 294 nM; at human A2B, 94.2 nM.

As for `N#Cc1c(N)nc(SCc2cnccn2)c(C#N)c1-c1ccc(OCCOC(F)F)cc1` [Compound 235], the EC50 came to 3280 nM in assay [1] and 1970 nM at human A2B.

In the case of `N#Cc1c(SCCC(N)=O)nc(N2CCCC2)c(C#N)c1-c1ccc(OCCO)cc1` [Compound 96], the EC50 in assay [1] is above 10000 nM; at human A2B it was 97 nM.

Turning to `N#Cc1c(N)nc(SCCC2CCO2)c(C#N)c1-c1ccc(OCCO)cc1` (centres unmarked) [Compound 10], the EC50 is above 10000 nM in assay [1] and 3760 nM at human A2B.

`N#Cc1c(SCc2cccnc2)nc(N2CC(F)(F)C2)c(C#N)c1-c1ccc(OCCOC(F)F)cc1` [Compound 264]: the EC50 (in assay [1]; on human A2B) was above 10000 nM throughout.

For the molecule `COCCOc1ccc(-c2c(C#N)c(N)nc(SCc3ccncc3)c2C#N)cc1` [Compound 197], the EC50 is 52 nM in assay [1] and above 10000 nM on human A2B.

Take `N#Cc1c(N)nc(NCc2cccnc2)c(C#N)c1-c1ccc(OCCO)cc1` [Compound 161]: the half-maximal effective concentration (EC50) in assay [1] was 368 nM; at human A2B, 159 nM.

Turning to `COc1nc(SCc2cccnc2)c(C#N)c(-c2ccc(OCCO)cc2)c1C#N` [Compound 282], the EC50 in assay [1] was 61.5 nM; on human A2B, 20 nM.

As to `N#Cc1c(N)nc(SCC2CCOC2)c(C#N)c1-c1ccc(OC2CC(O)C2)cc1` (centres unmarked) [Compound 324], the EC50 in assay [1] was 21.3 nM; on human A2B, above 10000 nM.

In the case of `COCCOc1ccc(-c2c(C#N)c(N)nc(S[C@@H](C)c3cccnc3)c2C#N)cc1` [Compound 247], the EC50 in assay [1] was 1.19 nM; on human A2B it was above 10000 nM.

In the case of `COCCOc1ccc(-c2c(C#N)c(N)nc(SCC(=O)O)c2C#N)cc1` [Compound 68], the EC50 in assay [1] is above 10000 nM; at human A2B it was 4230 nM.

Regarding `N#Cc1c(N)nc(SCc2cccc3[nH]cnc23)c(C#N)c1-c1ccc(OCCO)cc1` [Compound 5], the values for the concentration giving a half-maximal response (EC50) (in assay [1]; on human A2B) were above 10000 nM and 13.4 nM, respectively.

Consider `CNC(=O)CSc1nc(N2CCC2)c(C#N)c(-c2ccc(OCCOC)cc2)c1C#N` [Compound 78], for which the EC50 in assay [1] was 643 nM; at human A2B it was above 10000 nM.

With `N#Cc1c(N)nc(SCc2cccnc2)c(C#N)c1-c1ccc(O[C@H]2CCOC2)cc1` [Compound 240], the results for the EC50 (in assay [1]; at human A2B) were 0.903 nM and 0.335 nM, respectively.

Turning to `COCCOc1ccc(-c2c(C#N)c(SCc3cnccn3)nc(N3CC(F)C3)c2C#N)cc1` [Compound 252], the EC50 (in assay [1]; at human A2B) was above 10000 nM in each case.
